Data on eight molecules can be found in US11753446B2, “Beta-hairpin peptidomimetics” (POLYPHOR AG, priority 2014, dated 2023).

The subject of data set [1] is human red blood cells (hRBC). Put plainly: Hemolysis: hemolytic activity at 100 μg/mL, 1 h at 37° C. As to conditions: red cells of human, 1 h, 100. As to the method:
Lyophilized peptides were weighed on a Microbalance (Mettler MT5) and dissolved in sterile water to a final concentration of 1 mg/mL. Stock solutions were kept at +4° C., light protected.
The peptides were tested for their hemolytic activity against human red blood cells (hRBC). Fresh hRBC were washed three times with phosphate buffered saline (PBS) and centrifuged for 5 min at 3000×g. Compounds (100 μg/mL) were incubated with 20% hRBC (v/v) for 1 h at 37° C. and shaking at 300 rpm. The final erythrocyte concentration was approximately 0.9×10^9 cells/mL. A value of 0% and 100% cell lyses, respectively, was determined by incubation of hRBC in the presence of PBS containing 0.001% acetic acid and 2.5% Triton X-100 in H2O, respectively. The samples were centrifuged, the supernatants were 8-fold diluted in PBS buffer and the optical densities (OD) were measured at 540 nm.
Percent hemolysis was calculated as follows: (OD540peptide/OD540H2O)×100%.

For data set [2], the system named is Acinetobacter baumannii DSM 30008. The class given is cell-based. The settings on record: DSM 30008. As to the method: (§1) Stock solutions were kept at +4° C., light protected.
(§2) The selective antimicrobial activities of the peptides were determined in 96-well plates (Greiner, polystyrene) by the standard NCCLS broth microdilution method (National Committee for Clinical Laboratory Standards 1993. Methods for dilution antimicrobial susceptibility tests for bacteria that grow aerobically, 3rd ed. Approved standard M7-A6; National Committee for Clinical laboratory standards, Wayne, Pa.) with slight modifications. Inocula of the microorganisms were diluted into Mueller-Hinton II (MH, cation adjusted) broth and compared with a 0.5 McFarland standard to give appr. 10^6 colony forming units (CFU)/mL. Aliquots (90 μl) of inoculate were added to 10 μl of MH broth+P-80 (Polysorbate 80, 0.002% final concentration) containing the peptide in serial two-fold dilutions. The following microorganisms were used to determine antibiotic selectivity of the peptides: Escherichia coli ATCC 25922, Klebsiella pneumoniae ATCC 13883 and Acinetobacter baumannii DSM 30008.

The test system of data set [3] is Escherichia coli ATCC 25922. The class given is cell-based. The settings on record: ATCC 25922. As to the method:
as §1, §2

For data set [4], the system named is Klebsiella pneumoniae ATCC 13883. The class given is cell-based. The settings on record: ATCC 13883. As to the method: as §1, §2

Where a SMILES comes first, the peptide text is derived from it. Bridges are numbered along the chain shown (N, C = ends). [ ]: non-standard residue; d: D form. Tle = CC(C)(C)[C@H](N)C(=O)O; dDab = NCC[C@@H](N)C(=O)O; Orn = NCCC[C@H](N)C(=O)O; Dab = NCC[C@H](N)C(=O)O; Dap = NC[C@H](N)C(=O)O

Consider `CC(C)C[C@@H]1NC(=O)[C@H](CCCNC(=N)N)NC(=O)[C@@H](CCN)NC(=O)[C@H](C(C)C)NC(=O)[C@@H]2CSSC[C@H](NC1=O)C(=O)N[C@@H](Cc1ccc(O)cc1)C(=O)N[C@@H](CC(N)=O)C(=O)N[C@@H](CCN)C(=O)N[C@H](CCN)C(=O)N[C@@H](CCN)C(=O)N[C@@H](Cc1c[nH]c3ccccc13)C(=O)N[C@@H](CO)C(=O)N[C@@H](Cc1ccc(O)cc1)C(=O)N2` [Example 56, cyclo(-Leu-Cys-Tyr-Asn-Dab-^DDab-Dab-Trp-Ser-Tyr-Cys-Val-^DDab-Arg-)] (HELM PEPTIDE1{C.V.[NCC[C@@H](N[*:1])C(=O)[*:2]].R.L.C.Y.N.[Dab].[NCC[C@@H](N[*:1])C(=O)[*:2]].[Dab].W.S.Y}$PEPTIDE1,PEPTIDE1,1:R3-6:R3|PEPTIDE1,PEPTIDE1,1:R1-14:R2$$$V2.0), for which the “Hemolysis at 100 μg/mL” value in data set [1] stood at 1%. The “Acinetobacter baumannii DSM 30008 MIC” value in data set [2] was found to be 0.625 µg/mL. Besides, the “Escherichia coli ATCC 25922 MIC” value in data set [3] stood at 1 µg/mL. Further, in data set [4], the “Klebsiella pneumoniae ATCC 13883 MIC” value amounted to 1 µg/mL.

In the case of `CC(C)[C@@H]1NC(=O)[C@H](C)NC(=O)[C@@H](C)NC(=O)[C@H](CO)NC(=O)[C@@H]2CC(=O)NCC[C@H](NC1=O)C(=O)N[C@@H](Cc1ccc(O)cc1)C(=O)N[C@@H](CCN)C(=O)N[C@@H](CCN)C(=O)N[C@H](CCN)C(=O)N[C@@H](CCN)C(=O)N[C@@H](Cc1c[nH]c3ccccc13)C(=O)N[C@@H](CCN)C(=O)N[C@@H](C(C)(C)C)C(=O)N2` [Example 30, cyclo(-Val-Dab-Tyr-Dab-Dab-^DDab-Dab-Trp-Dab-tBuGly-Asp-Ser-^DAla-Ala-)] (HELM PEPTIDE1{A.V.[Dab].Y.[Dab].[Dab].[NCC[C@@H](N[*:1])C(=O)[*:2]].[Dab].W.[Dab].[CC(C)(C)[C@H](N[*:1])C(=O)[*:2]].D.S.[dA]}$PEPTIDE1,PEPTIDE1,3:R3-12:R3|PEPTIDE1,PEPTIDE1,1:R1-14:R2$$$V2.0), the “Hemolysis at 100 μg/mL” value in data set [1] came out at 1%. The “Acinetobacter baumannii DSM 30008 MIC” value in data set [2] amounted to 8 µg/mL. For the same molecule, the “Escherichia coli ATCC 25922 MIC” value in data set [3] stood at 1 µg/mL. For the same molecule, in data set [4], the “Klebsiella pneumoniae ATCC 13883 MIC” value turned out to be 2 µg/mL.

Regarding `CC(C)C[C@@H]1NC(=O)[C@H](CN)NC(=O)[C@@H](CCN)NC(=O)[C@H](C(C)C)NC(=O)[C@@H]2CSSC[C@H](NC1=O)C(=O)N[C@@H](Cc1ccc(O)cc1)C(=O)N[C@@H](CC(N)=O)C(=O)N[C@@H](CCCN)C(=O)N[C@H](CCN)C(=O)N[C@@H](CCN)C(=O)N[C@@H](Cc1c[nH]c3ccccc13)C(=O)N[C@@H](CO)C(=O)N[C@@H](Cc1ccc(O)cc1)C(=O)N2` [Example 68, cyclo(-Leu-Cys-Tyr-Asn-Orn-^DDab-Dab-Trp-Ser-Tyr-Cys-Val-^DDab-Dap-)] (cyclo(CV[dDab][Dap]LCYN[Orn][dDab][Dab]WSY); disulfide 1-6), the “Hemolysis at 100 μg/mL” value in data set [1] amounted to 1%. Besides, the “Acinetobacter baumannii DSM 30008 MIC” value in data set [2] came to 1.25 µg/mL. In addition, the “Escherichia coli ATCC 25922 MIC” value in data set [3] came out at 0.75 µg/mL. Further, in data set [4], the “Klebsiella pneumoniae ATCC 13883 MIC” value is 0.5 µg/mL.

For `CC(C)C[C@@H]1NC(=O)[C@H](CCCNC(=N)N)NC(=O)[C@@H](CCN)NC(=O)[C@H](C(C)C)NC(=O)[C@@H]2CSSC[C@H](NC1=O)C(=O)N[C@@H](Cc1ccc(O)cc1)C(=O)N[C@@H](CO)C(=O)N[C@@H](CCCN)C(=O)N[C@H](CCN)C(=O)N[C@@H](CCN)C(=O)N[C@@H](Cc1c[nH]c3ccccc13)C(=O)N[C@@H](CC(N)=O)C(=O)N[C@@H](Cc1ccc(O)cc1)C(=O)N2` [Example 52, cyclo(-Leu-Cys-Tyr-Ser-Orn-^DDab-Dab-Trp-Asn-Tyr-Cys-Val-^DDab-Arg-)] (HELM PEPTIDE1{C.V.[NCC[C@@H](N[*:1])C(=O)[*:2]].R.L.C.Y.S.[Orn].[NCC[C@@H](N[*:1])C(=O)[*:2]].[Dab].W.N.Y}$PEPTIDE1,PEPTIDE1,1:R3-6:R3|PEPTIDE1,PEPTIDE1,1:R1-14:R2$$$V2.0), the “Hemolysis at 100 μg/mL” value in data set [1] was determined as 1%. Moreover, the “Acinetobacter baumannii DSM 30008 MIC” value in data set [2] came to 1.25 µg/mL. Moreover, in data set [3], the “Escherichia coli ATCC 25922 MIC” value turned out to be 0.75 µg/mL. Besides, the “Klebsiella pneumoniae ATCC 13883 MIC” value in data set [4] came to 1.5 µg/mL.

On to `CC(C)C[C@@H]1NC(=O)[C@H](CCCNC(=N)N)NC(=O)[C@@H](CCCNC(=N)N)NC(=O)[C@H](C(C)C)NC(=O)[C@@H]2CSSC[C@H](NC1=O)C(=O)N[C@@H](Cc1ccc(O)cc1)C(=O)N[C@@H](CC(N)=O)C(=O)N[C@@H](CCCN)C(=O)N[C@H](CCN)C(=O)N[C@@H](CCN)C(=O)N[C@@H](Cc1c[nH]c3ccccc13)C(=O)N[C@@H](CO)C(=O)N[C@@H](Cc1ccc(O)cc1)C(=O)N2` [Example 66, cyclo(-Leu-Cys-Tyr-Asn-Orn-^DDab-Dab-Trp-Ser-Tyr-Cys-Val-^DArg-Arg-)] (HELM PEPTIDE1{C.V.[dR].R.L.C.Y.N.[Orn].[NCC[C@@H](N[*:1])C(=O)[*:2]].[Dab].W.S.Y}$PEPTIDE1,PEPTIDE1,1:R3-6:R3|PEPTIDE1,PEPTIDE1,1:R1-14:R2$$$V2.0), for which the “Hemolysis at 100 μg/mL” value in data set [1] was 2%. In addition, the “Acinetobacter baumannii DSM 30008 MIC” value in data set [2] was found to be 1.25 µg/mL. Further, the “Escherichia coli ATCC 25922 MIC” value in data set [3] came to 1 µg/mL. The “Klebsiella pneumoniae ATCC 13883 MIC” value in data set [4] stood at 0.5 µg/mL.

Consider `CC[C@H](C)[C@@H]1NC(=O)[C@H](CCCNC(=N)N)NC(=O)[C@@H](CCN)NC(=O)[C@H](CO)NC(=O)[C@@H]2CSSC[C@H](NC1=O)C(=O)N[C@@H](Cc1ccc(O)cc1)C(=O)N[C@@H](CCN)C(=O)N[C@@H](CCCN)C(=O)N[C@H](CCN)C(=O)N[C@@H](CCN)C(=O)N[C@@H](Cc1c[nH]c3ccccc13)C(=O)N[C@@H](CCN)C(=O)N[C@@H](C(C)(C)C)C(=O)N2` [Example 12, cyclo(-Ile-Cys-Tyr-Dab-Orn-^DDab-Dab-Trp-Dab-tBuGly-Cys-Ser-^DDab-Arg-)] (cyclo(CS[dDab]RICY[Dab][Orn][dDab][Dab]W[Dab][Tle]); disulfide 1-6), for which the “Hemolysis at 100 μg/mL” value in data set [1] amounted to 1%. Besides, the “Acinetobacter baumannii DSM 30008 MIC” value in data set [2] was 1 µg/mL. The “Escherichia coli ATCC 25922 MIC” value in data set [3] came out at 0.5 µg/mL. Besides, in data set [4], the “Klebsiella pneumoniae ATCC 13883 MIC” value worked out at 1 µg/mL.

`CC(C)C[C@@H]1NC(=O)[C@H](CCN)NC(=O)[C@@H](CCN)NC(=O)[C@H]([C@@H](C)O)NC(=O)[C@@H]2CSSC[C@H](NC1=O)C(=O)N[C@@H](Cc1ccc(O)cc1)C(=O)N[C@@H](CC(N)=O)C(=O)N[C@@H](CCCN)C(=O)N[C@H](CCN)C(=O)N[C@@H](CCN)C(=O)N[C@@H](Cc1c[nH]c3ccccc13)C(=O)N[C@@H](CO)C(=O)N[C@@H](Cc1ccc(O)cc1)C(=O)N2` [Example 7, cyclo(-Leu-Cys-Tyr-Asn-Orn-^DDab-Dab-Trp-Ser-Tyr-Cys-Thr-^DDab-Dab-)] (HELM PEPTIDE1{C.T.[NCC[C@@H](N[*:1])C(=O)[*:2]].[Dab].L.C.Y.N.[Orn].[NCC[C@@H](N[*:1])C(=O)[*:2]].[Dab].W.S.Y}$PEPTIDE1,PEPTIDE1,1:R3-6:R3|PEPTIDE1,PEPTIDE1,1:R1-14:R2$$$V2.0): the “Hemolysis at 100 μg/mL” value in data set [1] worked out at 1%. Besides, the “Acinetobacter baumannii DSM 30008 MIC” value in data set [2] was 2 µg/mL. In data set [3], the “Escherichia coli ATCC 25922 MIC” value is 2 µg/mL. Further, the “Klebsiella pneumoniae ATCC 13883 MIC” value in data set [4] amounted to 1 µg/mL.

For `CC(C)C[C@@H]1NC(=O)[C@H](CCCNC(=N)N)NC(=O)[C@@H](CCN)NC(=O)[C@H](C)NC(=O)[C@@H]2CSSC[C@H](NC1=O)C(=O)N[C@@H](Cc1ccc(O)cc1)C(=O)N[C@@H](CC(N)=O)C(=O)N[C@@H](CCCN)C(=O)N[C@H](CCN)C(=O)N[C@@H](CCN)C(=O)N[C@@H](Cc1c[nH]c3ccccc13)C(=O)N[C@@H](CO)C(=O)N[C@@H](Cc1ccc(O)cc1)C(=O)N2` [Example 71, cyclo(-Leu-Cys-Tyr-Asn-Orn-^DDab-Dab-Trp-Ser-Tyr-Cys-Ala-^DDab-Arg-)] (HELM PEPTIDE1{A.[NCC[C@@H](N[*:1])C(=O)[*:2]].R.L.C.Y.N.[Orn].[NCC[C@@H](N[*:1])C(=O)[*:2]].[Dab].W.S.Y.C}$PEPTIDE1,PEPTIDE1,5:R3-14:R3|PEPTIDE1,PEPTIDE1,1:R1-14:R2$$$V2.0), the “Hemolysis at 100 μg/mL” value in data set [1] is 1%. For the same molecule, the “Acinetobacter baumannii DSM 30008 MIC” value in data set [2] was 1.5 µg/mL. In data set [3], the “Escherichia coli ATCC 25922 MIC” value was 1.5 µg/mL. Further, the “Klebsiella pneumoniae ATCC 13883 MIC” value in data set [4] is 1 µg/mL.
